33 compounds from patent US6995177B1, “HCV NS3 protease inhibitors” (Istituto Di Ricerche Di Biologia Molecolare P Angeletti SPA, priority 1999, dated 2006) can be followed below.

By IC50 is commonly meant the concentration that inhibits the measured activity by half. Read a high IC50 as lower potency.

This assay addresses HCV NS3 protease (Hepatitis C virus genotype 1b, UniProt P26662). As to the kind of experiment: Microplate protease activity assay. In kind it is biochemical, hepatitis C virus (J strain). The conditions noted are these: inhibition of HCV NS3 protease, co-factor Pep4AK, tritiated substrate. The protocol: Microplate Protease Activity Assay
The HCV-protease (J strain) was stored until use at −80° C. in 250 mM NaCl, phosphate buffer pH 6.5, 50% glycerol, 0.1% CHAPS. As protease co-factor the peptide Pep4AK (KKKGSVVIVGRIILSGR-NH2), spanning the central hydrophobic core (residues 21–34) of the NS4A protein, with a three-lysine tag at the N-terminus to increase solubility (Bianchi, E. et al., Biochemistry 36, 7890–7897;1997), was used. Pep4AK was stored at −80° C. in DMSO; the tritiated substrate Ac-DEMEECASHLPYK (^3H-Ac)-NH2, and the corresponding cold substrate Ac-DEMEECASHLPYK(Ac)-NH2 were stored at −80° C. in DMSO/DTT.
The assay was run in Costar polypropylene 96-well plates. The composition of the reaction mixture was as follows (100 μl): • Glycerol 15% • DTT 30 mM • Hepes pH 7,5 50 mM • Triton X-100 0.05% • Protease 10 nM • hot+cold substrate 5 μM (300.000 cpm) • Pep4AK 15 μM
Test compounds were dissolved—in DMSO (final concentration 10% DMSO)
Pep4AK was pre-incubated with protease for 5 min prior to addition of substrate mix. In these conditions, the substrate Km was 7±2 μM. Test compounds were added at 8 different concentrations in 8 different wells. Plates were shaken for 30 minutes at room temperature, then an ionic exchange resin (100 μl of 20% Fractogel TSK-DEAE® 650S, Merck) was added to capture unprocessed substrate and plates shaken for another 10 minutes. After allowing the resin to settle by centrifugation, 30 μl of the reaction mix were transferred in a 96-well plate (Picoplate, Packard), admixed with 250 μl of scintillation cocktail Microscint 40, and the radioactivity measured in a scintillation Packard Top Count β-counter.
IC50 was calculated from the test compound dilution curve, as the concentration of compound giving 50% inhibitions.

Sequence of HCV NS3 protease (P26662 1027-1206, other chains not shown): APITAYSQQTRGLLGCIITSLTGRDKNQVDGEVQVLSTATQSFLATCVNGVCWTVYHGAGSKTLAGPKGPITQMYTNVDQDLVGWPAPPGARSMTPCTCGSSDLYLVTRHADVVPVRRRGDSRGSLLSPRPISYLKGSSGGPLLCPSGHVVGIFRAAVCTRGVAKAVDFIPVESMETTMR

With `CC(C)C[C@H](NC(=O)[C@H](CC(=O)O)NC(=O)[C@H](CC1CCCCC1)NC(=O)[C@@H]1CCCC[C@H]1C(=O)O)C(N)=O` (single isomer, unassigned) [Example 1, R1R-cyclohexane-1,2-dicarboxylate monoamide of Cha-Asp-Leu-NH2], half-maximal inhibition (Table I) (IC50) required 15 µM.
Take `CC(C)CC(NC(=O)C(CC(=O)O)NC(=O)C(NC(=O)C1CCCCC1C(=O)O)c1cccc(OC(=O)CC(c2ccccc2)c2ccccc2)c1)C(N)=O` (single isomer, unassigned) [Example 8]: the IC50 (Table II) is 13 µM.
For `O=C(O)CCN(CCC(c1ccccc1)c1ccccc1)C(=O)[C@@H](NC(=O)[C@@H]1CCCC[C@H]1C(=O)O)c1ccccc1` (single isomer, unassigned) [Example 19], half-maximal inhibition (Table IV) (IC50) required 14 µM.
Turning to `CC(C)C[C@H](NC(=O)[C@H](CC(=O)O)NC(=O)[C@H](CC1CCCCC1)NC(=O)[C@H]1CCCC[C@@H]1C(=O)O)C(N)=O` [Example 2, SS-cyclohexane-1,2-dicarboxylate monoamide of Cha-Asp-Leu-NH2], where the note is “Table I”, half-maximal inhibition (IC50) was put at 54 µM.
Take `CCNC(=O)[C@H](CC(C)C)NC(=O)[C@H](CC(=O)O)NC(=O)[C@H](CC1CCCCC1)NC(=O)C1=C(C(=O)O)CCCC1` [Example 4]: for the setting “Table I”, the IC50 is 38 µM.
`CC(C)C[C@H](NC(=O)[C@H](CC(=O)O)NC(=O)[C@H](CC1CCCCC1)NC(=O)[C@@H]1CCC[C@H]1C(=O)O)C(N)=O` [Example 5] showed an IC50 (Table I) of 60 µM.
In turn, `CC(C)C[C@H](NC(=O)[C@H](CC(=O)O)NC(=O)[C@H](CC1CCCCC1)NC(=O)c1ccccc1C(=O)O)C(N)=O` [Example 6] yielded an IC50 (Table I) of 64 µM.
As for `CCNC(=O)[C@H](CC(C)C)NC(=O)[C@H](CC(=O)O)NC(=O)[C@H](CC1CCCCC1)NC(=O)c1ccccc1C(=O)O` [Example 7], the 50% inhibitory concentration (IC50) (Table I) came to 64 µM.
In the case of `CC(C)C[C@H](NC(=O)[C@H](CC(=O)O)NC(=O)[C@@H](NC(=O)[C@@H]1CCCC[C@H]1C(=O)O)c1cccc(OC(=O)Cc2cccc3ccccc23)c1)C(N)=O` [Example 9], the IC50 (Table II) came to 22 µM.
Compound `CC(C)C[C@H](NC(=O)[C@H](CC(=O)O)NC(=O)[C@@H](NC(=O)[C@@H]1CCCC[C@H]1C(=O)O)c1cccc(OC(=O)Cc2ccc3ccccc3c2)c1)C(N)=O` [Example 10] yielded an IC50 (Table II) of 22 µM.
In turn, `CC(C)C[C@H](NC(=O)[C@H](CC(=O)O)NC(=O)[C@@H](NC(=O)[C@@H]1CCCC[C@H]1C(=O)O)c1cccc(OC(=O)[C@@H]2CCCC[C@H]2C(=O)O)c1)C(N)=O` [Example 11] had an IC50 (Table II) of 35 µM.
`CC(C)C[C@H](NC(=O)[C@H](CC(=O)O)NC(=O)[C@@H](NC(=O)[C@@H]1CCCC[C@H]1C(=O)O)c1ccc(Cl)cc1)C(N)=O` [Example 12] showed a half-inhibitory concentration (IC50) (Table II) of 37 µM.
Under “Table II”, `CC(C)C[C@H](NC(=O)[C@H](CC(=O)O)NC(=O)[C@@H](NC(=O)[C@@H]1CCCC[C@H]1C(=O)O)c1ccccc1)C(N)=O` [Example 13] showed an IC50 of 40 µM.
Compound `CC(C)C[C@H](NC(=O)[C@H](CC(=O)O)NC(=O)[C@@H](NC(=O)[C@@H]1CCCC[C@H]1C(=O)O)c1ccccc1F)C(N)=O` [Example 14] gave an IC50 (Table II) of 47 µM.
In turn, `CC(C)C[C@H](NC(=O)[C@H](CC(=O)O)NC(=O)[C@@H](NC(=O)[C@@H]1CCCC[C@H]1C(=O)O)c1ccc(Br)cc1)C(N)=O` [Example 15] registered an IC50 (Table II) of 26 µM.
With `CC(C)C[C@H](NC(=O)[C@H](CCC(=O)O)NC(=O)[C@H](CC1CCCCC1)NC(=O)[C@@H]1CCCC[C@H]1C(=O)O)C(N)=O` [Example 16], it took 41 µM to reach half-maximal inhibition (Table III) (IC50).
`CC(C)C[C@H](NC(=O)[C@H](CC(=O)O)N(C)C(=O)[C@H](CC1CCCCC1)NC(=O)[C@@H]1CCCC[C@H]1C(=O)O)C(N)=O` [Example 17] came in with an IC50 (Table III) of 100 µM.
`CC(C)C[C@H](NC(=O)[C@H](CC(=O)O)N(C)C(=O)[C@H](CC1CCCCC1)NC(=O)c1ccccc1C(=O)O)C(N)=O` [Example 18]: where the note is “Table III”, the midpoint of inhibition, the IC50, lay at 115 µM.
Where the note is “Table IV”, `O=C(O)CCN(CCC(c1ccccc1)c1ccccc1)C(=O)[C@H](CC1CCCCC1)NC(=O)[C@@H]1CCCC[C@H]1C(=O)O` [Example 20] showed an IC50 of 55 µM.
Turning to `O=C(O)CCN(CCC(c1ccccc1)c1ccccc1)C(=O)[C@@H](NC(=O)[C@@H]1CCCC[C@H]1C(=O)O)c1ccc(Br)cc1` [Example 21], the IC50 (Table IV) is 1.7 µM.
`O=C(O)CCN(CCC(c1ccccc1)c1ccccc1)C(=O)[C@@H](NC(=O)[C@@H]1CCCC[C@H]1C(=O)O)c1ccc(C(F)(F)F)cc1` [Example 22] returned an IC50 (Table IV) of 7 µM.
For the setting “Table IV”, `O=C(O)CCN(CCC(c1ccccc1)c1ccccc1)C(=O)[C@@H](NC(=O)[C@@H]1CCCC[C@H]1C(=O)O)c1ccccc1F` [Example 23] displayed an IC50 of 6 µM.
Turning to `CCOC(=O)CCN(CCC(c1ccccc1)c1ccccc1)C(=O)[C@@H](NC(=O)[C@H]1CCCC[C@@H]1C(=O)O)c1ccc(Br)cc1` [Example 24], under “Table IV”, inhibition was half-maximal at 60 µM (IC50).
On to `NC(=O)CCN(CCC(c1ccccc1)c1ccccc1)C(=O)[C@@H](NC(=O)[C@H]1CCCC[C@@H]1C(=O)O)c1ccc(Br)cc1` [Example 25], for which it took 59 µM to reach half-maximal inhibition (Table IV) (IC50).
`COc1ccccc1CCN(CCC(=O)O)C(=O)[C@@H](NC(=O)[C@@H]1CCCC[C@H]1C(=O)O)c1ccccc1F` [Example 26] had an IC50 (Table IV) of 44 µM.
Regarding `COc1cccc(CCN(CCC(=O)O)C(=O)[C@@H](NC(=O)[C@@H]2CCCC[C@H]2C(=O)O)c2ccccc2F)c1` [Example 27], the IC50 (Table IV) stood at 66 µM.
On to `O=C(O)CCN(CCc1ccccc1Cl)C(=O)[C@@H](NC(=O)[C@@H]1CCCC[C@H]1C(=O)O)c1ccccc1F` [Example 28], for which, for the setting “Table IV”, the IC50 stood at 70 µM.
With `O=C(O)CCN(CC(c1ccccc1)c1ccccc1)C(=O)[C@@H](NC(=O)[C@@H]1CCCC[C@H]1C(=O)O)c1ccccc1` [Example 29], half-maximal inhibition (Table IV) (IC50) was put at 39 µM.
On to `O=C(O)CCN(CCc1ccc(Cl)cc1Cl)C(=O)[C@@H](NC(=O)[C@@H]1CCCC[C@H]1C(=O)O)c1ccccc1` [Example 30], for which inhibition (Table IV) was half-maximal at 49 µM (IC50).
Where the note is “Table IV”, `COc1ccc(CCN(CCC(=O)O)C(=O)[C@@H](NC(=O)[C@@H]2CCCC[C@H]2C(=O)O)c2ccccc2)cc1OC` [Example 31] returned an IC50 of 123 µM.
Where the note is “Table IV”, `O=C(O)CCN(CC(c1ccccc1)c1ccccc1)C(=O)[C@H](CC1CCCCC1)NC(=O)[C@@H]1CCCC[C@H]1C(=O)O` [Example 32] had an IC50 of 133 µM.
The compound `O=C(O)CCN(CCc1ccc(Cl)cc1Cl)C(=O)[C@H](CC1CCCCC1)NC(=O)[C@@H]1CCCC[C@H]1C(=O)O` [Example 33] returned a half-maximal inhibitory concentration (IC50) (Table IV) of 177 µM.
In turn, “S,S-cyclohexane-1,2-dicarboxylate monoamide of Cha-Asp-Leu-NHEt [Example 3]” showed a half-maximal inhibitory concentration (IC50) (Table I) of 32 µM.
